Data on 3 molecules can be found in patent US20230149409A1, “TREATMENT OF HUMAN PAPILLOMAVIRUS-ASSOCIATED CANCERS BY PD-L1 INHIBITORS” (priority 2021, published 2023).

Structures are written as SMILES. pEC50, pIC50: −log10 of the molar value.

In experiment [1] the test system is PD-L1 (PD-L1 aAPC/CHO-K1 cells, Jurkat-PD-1-NFAT effector cells). Description: Nuclear Factor of Activated T-cells (NFAT) assay. In kind it is cell-based. The conditions noted are these: Cricetulus griseus; PD-L1 aAPC/CHO-K1 + Jurkat-PD-1-NFAT cells, 24 hours. An outline of the steps:
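PD-L1 aAPC/CHO-K1 cells (8000/well) were treated with compound (0.4% DMSO, 2 µM final), then co-cultured with Jurkat-PD-1-NFAT effector cells for 24 hours at 37° C. NFAT luciferase luminescence was normalized to DMSO as fold induction. Maximum induction is relative to the control compound's top FOI; EC50 is from curve fitting.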

Experiment [2] deals with PD-L1 (U2OS/PD-L1 cells, Jurkat-PD-1-SHP cells). Nature of the experiment: Src Homology Region 2 Domain-containing Phosphatase (SHP) assay. In kind it is cell-based. The conditions noted are these: Homo sapiens; U2OS/PD-L1 + Jurkat-PD-1-SHP cells, 2 hours. An outline of the steps: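 U2OS/PD-L1 cells and Jurkat-PD-1-SHP cells (5,000 each per well) were co-incubated with compound in RPMI1640/1% FBS for 2 h at 37° C, with final DMSO 0.05%. PathHunter chemiluminescence was read after 1 h at room temperature. IC50 was fitted from percent of DMSO-control activity against log concentration.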

In experiment [3] the target is T1, PD-L1 on CD14+ cells in human whole blood (Homo sapiens, UniProt Q9NZQ7).
T1 construct: Cells were gated on CD14+ (BD Biosciences) and PD-L1 expression determined by mean fluorescence intensity; host or cells: CD14+ cells in normal human whole blood, stimulated with human interferon gamma
Nature of the experiment: PD-L1 whole blood internalization assay. The experiment is classed as cell-based. The conditions noted are these: 1 ng/mL interferon γ, CD14+ gated, 24 hour. In outline: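 Normal human whole blood exposed to compound concentration range plus 1 ng/mL IFN-γ for 18–20 h at 37 °C, then stained for PD-L1 and CD14, red cells lysed/fixed. PD-L1 MFI measured on CD14+ gated cells by flow cytometry; IC50 from percent inhibition versus log concentration fit.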

For experiment [4], the target named is T2, PD-⅟PD-L1 (recombinant human PD-L1 protein and human PD-1 protein) (Homo sapiens, UniProt Q9NZQ7).
T2 construct: Recombinant human PD-L1 protein (19-238) with a His-tag at the C-terminus; purchased AcroBiosystems PD1-H5229 (PD-L1); PD1-H5257 (PD-1)
Description: Homogeneous Time-Resolved Fluorescence (HTRF) PD-1/PD-L1 binding assay. The conditions noted are these: 3 nM PD1, 10 nM PD-L1, 25° C., PBS pH 7.4. In general terms: TR-FRET usually uses a lanthanide donor and a delayed reading to cut background.

T2 sequence (Q9NZQ7 19-238): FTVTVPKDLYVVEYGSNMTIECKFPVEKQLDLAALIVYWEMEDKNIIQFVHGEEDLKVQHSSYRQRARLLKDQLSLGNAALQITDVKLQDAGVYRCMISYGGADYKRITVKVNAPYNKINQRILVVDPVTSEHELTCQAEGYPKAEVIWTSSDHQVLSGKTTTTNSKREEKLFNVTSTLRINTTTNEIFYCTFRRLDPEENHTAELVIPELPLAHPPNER
T1 sequence (Q9NZQ7 19-290): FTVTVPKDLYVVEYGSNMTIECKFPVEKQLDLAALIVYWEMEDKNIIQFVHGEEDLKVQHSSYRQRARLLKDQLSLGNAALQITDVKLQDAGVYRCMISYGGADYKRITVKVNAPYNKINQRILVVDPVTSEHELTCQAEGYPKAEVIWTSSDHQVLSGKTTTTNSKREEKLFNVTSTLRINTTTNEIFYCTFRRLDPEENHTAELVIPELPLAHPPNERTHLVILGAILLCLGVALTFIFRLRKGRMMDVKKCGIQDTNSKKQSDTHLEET

`Cc1c(NC(=O)c2nc3c(n2C)CCN(CCC24CCC(C(=O)O)(CC2)C4)C3)cccc1-c1cccc(NC(=O)c2nc3c(n2C)CCN(CCC24CCC(C(=O)O)(CC2)C4)C3)c1Cl` [Compound 32, 4,4′-(((((2-chloro-2′-methyl-[1,1′-biphenyl]-3,3′-diyl)bis(azanediyl))bis(carbonyl))bis(1-methyl-1,4,6,7-tetrahydro-5H-imidazo[4,5-c]pyridine-2,5-diyl))bis(ethane-2,1-diyl))bis(bicyclo[2.2.1]heptane-1-carboxylic acid)]: the pEC50 (commonly the EC50 on a negative log10 scale, so that one unit is a factor of ten) in experiment [1] was more than 7.00. In addition, the values for the pIC50 in experiment [2], in experiment [3] and in experiment [4] were more than 8.00, more than 7.00 and more than 8.00, respectively.
For the molecule `Cn1c(C(=O)Nc2cccc(-c3cccc(NC(=O)c4nc5c(n4C)CCN(CCC46CCC(C(=O)O)(CC4)C6)C5)c3C#N)c2Cl)nc2c1CCN(CCC13CCC(C(=O)O)(CC1)C3)C2` [Compound 33, 4,4′-(((((2-chloro-2′-cyano-[1,1′-biphenyl]-3,3′-diyl)bis(azanediyl))bis(carbonyl))bis(1-methyl-1,4,6,7-tetrahydro-5H-imidazo[4,5-c]pyridine-2,5-diyl))bis(ethane-2,1-diyl))bis(bicyclo[2.2.1]heptane-1-carboxylic acid)], the negative logarithm of the EC50 (pEC50) in experiment [1] is more than 7.00. For the same molecule, the pIC50 (as a rule, the negative decadic logarithm of the IC50, by convention in mol/L) in experiment [2] is more than 8.00; in experiment [3], more than 7.00; in experiment [4] it was more than 8.00.
In the case of `Cc1c(Nc2nc(C(F)F)nc3cc(CN4CC[C@@H](O)C4)cnc23)cccc1-c1cccc(NC(=O)c2nc3c(n2C)CCN(CCC24CCC(C(=O)O)(CC2)C4)C3)c1Cl` [Compound 34, (R)-4-(2-(2-((2-chloro-3′-((2-(difluoromethyl)-7-((3-hydroxypyrrolidin-1-yl)methyl)pyrido[3,2-d]pyrimidin-4-yl)amino)-2′-methyl-[1,1′-biphenyl]-3-yl)carbamoyl)-1-methyl-1,4,6,7-tetrahydro-5H-imidazo[4,5-c]pyridin-5-yl)ethyl)bicyclo[2.2.1]heptane-1-carboxylic acid], in experiment [1], the pEC50 is more than 8.00. Moreover, the pIC50 in experiment [2], in experiment [3] and in experiment [4] was more than 8.00 each time.
